Laboratory results reported in US10934224B2, “Production of arginine-rich proteins from wastewater and use as a fertilizer” (Genebiologics, LLC, priority 2016, dated 2021).

Columns and labels:
[1] = cited from earlier work
[2] = Inhibition of cobalt binding to cation exchange resin; conditions: for effect on binding of cobalt to CM sepharose: 2.5 μM CoCl2, 0.95 μM inhibitor
Experimental: After sitting for 1 minute the sepharose was washed 2× with water to remove excess cobalt and inhibitor. The cobalt was then stripped from the column material with 50 μl of 50 mM EDTA and this cobalt-containing wash was made basic with 50 μl of 50 mM NaOH. The cobalt-containing wash was then monitored on a DU800 spectroscope at 463 nm wavelength for the data of Table 2 (FIG. 7), and from 350 nm to 650 nm for FIG. 5. The data of FIG. 5 and FIG. 7 were from separate experiments acquired on two different days.

[3] = test system: Arabidopsis thaliana seeds; assay: Arabidopsis thaliana seed germination and growth in liquid culture; assay type: in vivo; conditions: for root growth: 100 μg/ml in water; for optimal level (germination): day 4; for optimal level (biomass): day 5
Experimental: Approximately 300 Arabidopsis thaliana seeds were soaked in 75% ethanol for one minute, then soaked in 10% bleach, 0.02% TRITON×100 for five minutes, then washed five times with sterile water. The seeds were then resuspended in about 4 ml water, and dispensed into 30 Eppendorf tubes at approximately 100 microliters per tube, for a total of 8-9 seeds per tube. Test conditions included either water, 1× or 0.1×MS medium (Caisson; […] Root length and stem lengths are in mm.

E. coli strain NK5992 = assay: Growth of E. coli arginine auxotroph on arginine or polyarginine; assay type: cell-based
Experimental: Cells were grown in triplicate at 37° C. on a 96-well plate with measurement at 600 nm using a Tecan InfiniteM200 pro.

In the case of N=C(N)NCCC[C@H](N)C(=O)O [arginine], the “pKa of guanidinium group” value [1] is listed as “approximately 12.4”, the “effect on binding of cobalt to CM sepharose” value (“effect on binding of cobalt” for short) [2] is listed as “not by the presence of arginine” and the “effect on binding of cobalt” value ([2]; listed as Arginine) is listed as “enhanced the binding of cobalt”. For the same compound, the “competition with cobalt for binding to CM sepharose” value ([2]; 2.6-fold excess cobalt per arginine monomer, anionic sites limiting) was “did not compete”, the root growth [3] was “not found” and the “optimal level (germination)” value [3] was 100 µg/mL. The “effect on percent germination” value ([3]; day 4, added to 0.1×MS medium) was “same relative effect” and the “optimal level (biomass)” value [3] was 100 µg/mL.
For polyarginine, the “growth of arginine auxotroph on the substance” value (E. coli strain NK5992; M9 medium, 37° C., 600 nm) was “does grow on polyarginine”, the “growth relative to arginine monomer” value (E. coli strain NK5992; on a per-monomer equivalency) was “grows more poorly” and the “effect on binding of cobalt” value [2] was “inhibited”. For the same compound, the root growth [3] was “large amount of root growth”, the growth ([3]; 0.1× MS, 10 μg/ml, isolated case) was “increased growth” and the “optimal level (germination)” value [3] was 100 µg/mL. The “optimal level (biomass)” value [3] was 100 µg/mL.
